Counter-ions that a name gives are not always drawn.
How the values were obtained:
[1] = tested on: NCI-H292 lung cancer cells; assay: FDA drug screening, complete media vs cholesterol-free media without statin (TABLE 1); format: cell-based, human
[2] = tested on: NCI-H292 lung cancer cells; assay: FDA drug screening, complete media vs cholesterol-free media with simvastatin (TABLE 2); format: cell-based, human; conditions: for Cholesterol-free media + simvastatin (0.04 μM) / Complete Media: NCI-H292 cells
[3] = Complete minus Cholesterol-free, greater than 0 enhanced anti-cancer activity, about 0 neutral, below 0 antagonist
[4] = NCI-H292 cells, FDA drug library screen, cholesterol-free media without statin
[5] = NCI-H292 cells, FDA drug library screen, complete media
[6] = FDA drug library screen, cholesterol-free media with simvastatin 0.04 μM
[7] = complete media minus cholesterol-free media + simvastatin, >0 enhanced anti-cancer activity, about 0 neutral, <0 antagonist
[8] = NCI-H292 cells, cholesterol-free media without statin, FDA drug library screen
[9] = NCI-H292 cells, complete media, FDA drug library screen
[10] = complete vs cholesterol-free media, >0 enhanced anti-cancer activity, about 0 neutral, <0 antagonist
[11] = FDA library drug in cholesterol-free media with simvastatin 0.04 μM
[12] = FDA library drug in complete media
[13] = complete media vs cholesterol-free media + simvastatin (0.04 μM), >0 enhanced anti-cancer activity, about 0 neutral, <0 antagonist
[14] = Complete minus Cholesterol-free, greater than 0 enhanced anti-cancer activity, about 0 neutral, below 0 antagonists
[15] = NCI-H292 cells in cholesterol-free media without statin
[16] = NCI-H292 cells in complete media
[17] = FDA drug library screen, complete media
[18] = NCI-H292 cells, cholesterol-free media without statin
[19] = complete vs cholesterol-free media, greater than 0 enhanced anti-cancer activity, about 0 neutral, below 0 antagonists
[20] = drug in cholesterol-free media with simvastatin 0.04 μM
[21] = cholesterol-free media with simvastatin 0.04 μM, FDA drug library screen (TABLE 2)
[22] = complete media, FDA drug library screen (TABLE 2)
[23] = complete media minus cholesterol-free media + simvastatin (0.04 μM), >0 enhanced anti-cancer activity, about 0 neutral, <0 antagonist
[24] = Complete minus Cholesterol-free, >0 enhanced anti-cancer activity, about 0 neutral, <0 antagonist
[25] = cholesterol-free media with simvastatin 0.04 μM, cell growth value in FDA drug screen
[26] = complete media, cell growth value in FDA drug screen

C[C@H]1O[C@H](O[C@H]2[C@H](O)[C@@H](O)[C@@H](O[C@H]3[C@H](O)[C@@H](O)C(O)O[C@@H]3CO)O[C@@H]2CO)[C@H](O)[C@@H](O)[C@@H]1N[C@H]1C=C(CO)[C@@H](O)[C@H](O)[C@H]1O (stereo partly shown) [Acarbose]
Difference [1, 3]: −0.13
Cholesterol-free [1, 4]: 1.056
Complete [1, 5]: 0.9216
Cholesterol-free media + simvastatin (0.04 μM) [2, 6]: 0.841
Difference [2, 7]: 0.31

CC(C(=O)O)c1ccc2c(c1)Cc1cccnc1O2 (stereo not shown) [Pranoprofen]
Cholesterol-free [1, 8]: 0.6134
Complete [1, 9]: 1.137
Difference [1, 10]: 0.52
Cholesterol-free media + simvastatin (0.04 μM) [2, 11]: 1.474
Complete Media [2, 12]: 1.136
Difference [2, 13]: −0.34

C=C1CC[C@H](O)C/C1=C/C=C1\CCC[C@]2(C)[C@@H]([C@H](C)/C=C/[C@H](C)C(C)C)CC[C@@H]12 [Vitamin D2]
Difference [1, 14]: −0.62
Cholesterol-free [1, 15]: 1.409
Complete [1, 16]: 0.7927
Cholesterol-free media + simvastatin (0.04 μM) [2, 6]: 1.05
Complete Media [2, 17]: 0.9687
Difference [2, 13]: −0.08

Cc1ccc(=O)n(-c2ccccc2)c1 [Pirfenidone]
Cholesterol-free [1, 18]: 1.328
Complete ([1]; NCI-H292 cells, complete media): 0.9771
Difference [1, 19]: −0.35
Cholesterol-free media + simvastatin (0.04 μM) [2, 11]: 1.397
Complete Media [2, 12]: 1.068
Difference [2, 13]: −0.33

Cn1c(CCCC(=O)O)nc2cc(N(CCCl)CCCl)ccc21 [Bendamustine (hydrochloride)]
Difference ([1]; Complete minus Cholesterol-free, […]): −0.21
Cholesterol-free [1, 18]: 1.195
Complete ([1]; NCI-H292 cells, complete media): 0.9866
Cholesterol-free media + simvastatin (0.04 μM) [2, 20]: 1.142
Complete Media ([2]; drug in complete media): 0.9554
Difference ([2]; complete media vs cholesterol-free media + simvastatin (0.04 μM), […]): −0.19

CCCN[C@@H]1CCc2nc(N)sc2C1 [Dexpramipexole (dihydrochloride)]
Cholesterol-free [1, 18]: 0.9915
Complete ([1]; NCI-H292 cells, complete media): 0.5799
Difference [1, 19]: −0.41
Cholesterol-free media + simvastatin (0.04 μM) [2, 21]: 1.099
Complete Media [2, 22]: 1.11
Difference [2, 23]: 0.01

CCCC(CCC)C(N)=O [Valpromide]
Difference [1, 24]: −0.27
Cholesterol-free [1, 18]: 1.075
Complete ([1]; NCI-H292 cells, complete media): 0.8044
Cholesterol-free media + simvastatin (0.04 μM) [2, 6]: 1.404
Complete Media [2, 17]: 1.717
Difference [2, 7]: 0.31

O=c1cc(-c2ccccc2)oc2cc(O)c(O)c(O)c12 [Baicalein]
Cholesterol-free [1, 18]: 1.261
Complete ([1]; NCI-H292 cells, complete media): 0.9313
Difference [1, 19]: −0.33
Cholesterol-free media + simvastatin (0.04 μM) [2, 20]: 1.347
Complete Media ([2]; drug in complete media): 1.087
Difference [2, 13]: −0.26

Cc1cc(C#N)cc(C)c1Oc1nc(Nc2ccc(C#N)cc2)nc(N)c1Br [Etravirine]
Difference [1, 14]: −0.49
Cholesterol-free [1, 15]: 1.424
Complete [1, 16]: 0.9362
Cholesterol-free media + simvastatin (0.04 μM) [2, 21]: 0.8346
Complete Media [2, 22]: 0.8071
Difference [2, 23]: −0.03

C=CC(=O)Nc1cc(Nc2nccc(-c3cn(C4CC4)c4ccccc34)n2)c(OC)cc1N(C)CCN(C)C [Almonertinib]
Difference [1, 24]: −0.19
Cholesterol-free [1, 18]: 0.4646
Complete ([1]; NCI-H292 cells, complete media): 0.2735
Cholesterol-free media + simvastatin (0.04 μM) [2, 6]: 0.4298
Complete Media [2, 17]: 0.2855
Difference [2, 13]: −0.14

Nc1c2c(nc3ccccc13)CCCC2 [Tacrine hydrochloride hydrate]
Cholesterol-free [1, 8]: 1.254
Complete [1, 9]: 1.477
Difference [1, 10]: 0.22
Cholesterol-free media + simvastatin (0.04 μM) [2, 21]: 1.406
Complete Media [2, 22]: 1.383
Difference [2, 23]: −0.02

O=C1NCCN1CCN1CCC(c2cn(-c3ccc(F)cc3)c3ccc(Cl)cc23)CC1 [Sertindole]
Difference [1, 24]: −0.04
Cholesterol-free [1, 8]: 0.5468
Complete [1, 9]: 0.5035
Cholesterol-free media + simvastatin (0.04 μM) [2, 6]: 0.7983
Complete Media [2, 17]: 1.128
Difference [2, 7]: 0.33

COc1ccc2c(c1)c(CC(=O)OCC(=O)O)c(C)n2C(=O)c1ccc(Cl)cc1 [Acemetacin]
Cholesterol-free [1, 8]: 1.099
Complete [1, 9]: 1.479
Difference [1, 10]: 0.38
Cholesterol-free media + simvastatin (0.04 μM) [2, 11]: 2.236
Complete Media [2, 12]: 1.509
Difference [2, 13]: −0.73

NS(=O)(=O)c1cc2c(cc1Cl)NC(C(Cl)Cl)NS2(=O)=O (stereo not shown) [Trichlormethiazide]
Cholesterol-free [1, 18]: 1.351
Complete ([1]; NCI-H292 cells, complete media): 0.9482
Difference [1, 19]: −0.40
Cholesterol-free media + simvastatin (0.04 μM) [2, 25]: 1.02
Complete Media [2, 26]: 1.045
Difference [2, 7]: 0.02

C=CCN1C[C@H](C(=O)N(CCCN(C)C)C(=O)NCC)C[C@@H]2c3cccc4[nH]cc(c34)C[C@H]21 [Cabergoline]
Difference [1, 14]: −0.59
Cholesterol-free [1, 15]: 1.769
Complete [1, 16]: 1.184
Cholesterol-free media + simvastatin (0.04 μM) [2, 20]: 1.138
Complete Media ([2]; drug in complete media): 0.8998
Difference [2, 13]: −0.24

O=C1[C@@H]2[C@H]3CC[C@H](C3)[C@@H]2C(=O)N1C[C@@H]1CCCC[C@H]1CN1CCN(c2nsc3ccccc23)CC1 [Lurasidone (Hydrochloride)]
Difference [1, 24]: −0.27
Cholesterol-free [1, 18]: 1.115
Complete ([1]; NCI-H292 cells, complete media): 0.8426
Cholesterol-free media + simvastatin (0.04 μM) [2, 21]: 0.8431
Complete Media [2, 22]: 0.8046
Difference [2, 23]: −0.04

CCCCOc1cc(C(=O)NCCN(CC)CC)c2ccccc2n1 [Dibucaine]
Difference [1, 14]: −0.63
Cholesterol-free [1, 15]: 1.382
Complete [1, 16]: 0.749
Cholesterol-free media + simvastatin (0.04 μM) [2, 25]: 0.8438
Complete Media [2, 26]: 0.9323
Difference [2, 7]: 0.09

CC1=C(C)C(=O)C(C(CCCCCC(=O)O)c2ccccc2)=C(C)C1=O (stereo not shown) [Seratrodast]
Difference [1, 24]: 0.00
Cholesterol-free [1, 8]: 0.9876
Complete [1, 9]: 0.9904
Cholesterol-free media + simvastatin (0.04 μM) [2, 6]: 0.9305
Complete Media [2, 17]: 1.335
Difference [2, 7]: 0.40

C[C@H]1O[C@@H](n2cc(F)c(=O)[nH]c2=O)[C@H](O)[C@@H]1O [Doxifluridine]
Difference [1, 14]: −0.49
Cholesterol-free [1, 15]: 1.329
Complete [1, 16]: 0.8392
Cholesterol-free media + simvastatin (0.04 μM) [2, 21]: 1.085
Complete Media [2, 22]: 1.031
Difference [2, 23]: −0.05

Nc1nnc(-c2cccc(Cl)c2Cl)c(N)n1 [Lamotrigine]
Difference [1, 3]: −0.08
Cholesterol-free [1, 4]: 1.043
Complete [1, 5]: 0.9644
Cholesterol-free media + simvastatin (0.04 μM) [2, 11]: 1.437
Complete Media [2, 12]: 1.093
Difference [2, 13]: −0.34

N#C/C(=C1/SC[C@@H](c2ccc(Cl)cc2Cl)S1)n1ccnc1 [Luliconazole]
Difference [1, 14]: −0.58
Cholesterol-free [1, 15]: 1.532
Complete [1, 16]: 0.9562
Cholesterol-free media + simvastatin (0.04 μM) [2, 6]: 0.3531
Complete Media [2, 17]: 0.8464
Difference [2, 7]: 0.49

N[C@@H](Cc1c[nH]c2ccccc12)C(=O)O [L-Tryptophan]
Cholesterol-free [1, 8]: 1.009
Complete [1, 9]: 1.103
Difference [1, 10]: 0.09
Cholesterol-free media + simvastatin (0.04 μM) [2, 20]: 1.157
Complete Media ([2]; drug in complete media): 0.9202
Difference [2, 13]: −0.24

Bazedoxifene (acetate)
Difference [1, 24]: −0.29
Complete ([1]; NCI-H292 cells, complete media): 0.8636
Cholesterol-free media + simvastatin (0.04 μM) [2, 6]: 0.4477
Complete Media [2, 17]: 0.8485
Difference [2, 7]: 0.40

Reference: patent US20250144067A1, “PERSONALIZED STARVATION THERAPY FOR CANCER” (Faeth Therapeutics, Inc., priority 2021, published 2025)
